Results: patent USRE39130E1 (Bayer Cropscience K.K., priority 1986, dated 2006)

Columns and labels:
[1] = system: white-backed planthopper (Sogatella furcifera); assay: Test on planthoppers: white-backed planthopper (spray on rice plants, kill ratio); assay type: in vivo; conditions: sprayed rice plants, kill ratio two days later, compared with W-1, W-2 and Q-1
Description: (§1) In the same way as above, the kill ratio on white-backed planthopper (Sogatella furcifera) and organophosphate-resistant smaller brown planthopper (Laodelphax stiatellus) was calculated.

[2] = system: organophosphate-resistant green rice leafhoppers (Nephotettix cincticeps); assay: Test on organophosphate-resistant green rice leafhoppers (spray on rice plants, kill ratio); conditions: sprayed rice plants, 30 female imagoes, kill ratio two days later; compared with comparison compounds W-1, W-2 and Q 2
Description: Test on organophosphate-resistant green rice leafhoppers (Nephotettix cincticeps)
Preparation of a test chemical
Solvent: 3 parts by weight of xylene
Emulsifier: 1 part by weight of polyoxyethylene alkylphenyl ether
A water dilution of each of the reactive compounds in a predetermined concentration prepared as above was sprayed onto rice plants, about 10 cm tall, grown in pots having a diameter of 12 cm at a rate of 10 ml per pot. […] The pots were placed in a constant-temperature chamber. Two days later, the number of dead insects was examined, and the kill ratio was calculated.

[3] = system: green peach aphids (Myzus persicae) having resistance to organophosphate and carbamate chemicals; assay: Test on green peach aphids having resistance to organophosphate and carbamate chemicals (spray on eggplant seedlings, kill ratio); assay type: in vivo; conditions: sprayed eggplant seedlings, 28° C., kill ratio twenty-four hours after spraying; compared with W-1, W-2 and Q-2
Text: Test on green peach aphids (Myzus persicae) having resistance to organophosphate and carbamate chemicals
Bred green peach aphids having resistance to organophsophates and carbamates were inoculated on eggplant (black elongate variety) seedlings, about 20 cm tall, grown in unglazed pots having a diameter of 15 cm at a rate of about 200 per seedling. One day after the inoculation, a water dilution of each of the active compounds in a predetermined concentration prepared as in Example 6 was sprayed in sufficient amounts by means of a spray gun. After the spraying, the pots were left to stand in a greenhouse kept at 28° C. Twenty-four hours after the spraying, the kill ratio was calculated. The above test was carried out through two replicates.

[4] = system: organophosphate-resistant smaller brown planthopper (Laodelphax stiatellus); assay: Test on planthoppers: smaller brown planthopper (spray on rice plants, kill ratio); assay type: in vivo; conditions: sprayed rice plants, kill ratio two days later, compared with W-1, W-2 and Q-1
Description: as §1

Row | SMILES | efficacy (kill ratio) compared with comparison compounds [1] | efficacy (kill ratio) compared with comparison compounds [2] | efficacy (kill ratio) compared with comparison compounds [3] | efficacy (kill ratio) compared with comparison compounds [4]
1 | N#C/N=C1\NCCN1Cc1ccc(Cl)nc1 [Compound 5, 1-(2-chloro-5-pyridylmethyl)-2-cyanoiminoimidazolidine] | considerably better efficacy | considerably better efficacy | considerably better efficacy | considerably better efficacy
2 | Cc1cnc(CN2CCN/C2=N\C#N)cn1 [Compound 54, 1-(2-methyl-5-pyrazinylmethyl)-2-cyanoiminoimidazolidine] |  | considerably better efficacy |  | 
3 | N#C/N=C1\SCCN1Cc1cnc(Cl)s1 [Compound 69] |  | considerably better efficacy | considerably better efficacy | 
